Laboratory results: paper PMC10714399, “Open Source Antibiotics: Simple Diarylimidazoles Are Potent against Methicillin-Resistant Staphylococcus aureus” (ACS Infectious Diseases, 2023)
Values after ≈ are worked out from the molar mass of the structure shown. Where two headings read alike, the source gives them in different places.

Assays:
[1] = system: Staphylococcus aureus ATCC 43300 MRSA; assay: CO-ADD antibacterial assay (growth inhibition, MIC), MRSA; format: cell-based; details: read-out: MRSA MIC (CO-ADD)
Protocol: Hit Confirmation of active compounds by whole cell growth inhibition assays was conducted as an 8-point dose response to determine the Minimum Inhibitory Concentration (MIC), in duplicate (n=2). The inhibition of growth is measured against those microorganisms that […]
Included in the Hit Confirmation were 5 bacteria: Escherichia coli, Klebsiella pneumoniae, Acinetobacter baumannii, Pseudomonas aeruginosa and Staphylococcus aureus, and 2 fungi Candida albicans and Cryptococcus neoformans. […]
Assay Parameters Bacteria Fungi HEK293 Haemolysis […]
Duplicate (n=2) Duplicate (n=2) Duplicate (n=2) Duplicate (n=2)
QC Control MIC: Control MIC: Control CC50: Control HC10:
Non-Binding Non-Binding TC, 384-well Polypropylene
Plates Surface (NBS), Surface (NBS), black wall/clear 384-well and 384-well plate 384-well plate bottom polystyrene 384-
Cation-adjusted Yeast Nitrogen DMEM
Media Mueller Hinton Base supplemented 0.9% NaCl
Hit Confirmation outcomes are detailed in individual Project reports, personalised for each Project Submission for each CO-ADD user.
Please see your data sheet with file extension P0XXX_HC_data.xlsx, for example CO-ADD Project P0100, P0100_HC_data.xlsx
Study: HC_data ID: HC-Procedures & Materials
Date: Last updated June 2018 Confidential Page 3 of 11
(§1) (1 picture or pasted object on this page, not shown here)
Samples were provided by the collaborator and stored frozen at -20 °C. Samples were prepared in DMSO and water to a final testing concentration of 32 µg/mL or 20 µM (unless otherwise indicated in the data sheet) and serially diluted 1:2 fold for 8 times. Each sample concentration was prepared in 384-well plates, non-binding surface plate (NBS; Corning 3640) for each bacterial/fungal strain, tissue-culture treated (TC-treated; Corning 3712/3764) black for mammalian cell types and polypropylene 384-well (PP; Corning 3657) for haemolysis assays, all in duplicate (n=2), and keeping the final DMSO concentration to a maximum of 0.5%. All the sample preparation was done using liquid handling robots. […]
detailed in the Data sheet for the individual Project.
All bacteria were cultured in Cation-adjusted Mueller Hinton broth (CAMHB) at 37 °C overnight. A sample of each culture was then diluted 40-fold in fresh broth and incubated at 37 °C for 1.5-3 h. The resultant mid-log phase cultures were diluted (CFU/mL measured by OD600), then added to each well of the compound containing plates, giving a cell density of 5×10^5 CFU/mL and a total volume of 50 µL. All the plates were covered and incubated at 37 °C for 18 h without shaking.
Inhibition of bacterial growth was determined measuring absorbance at 600 nm (OD600), using a Tecan M1000 Pro monochromator plate reader. The percentage of growth inhibition was calculated for each well, using the negative control (media only) and positive control (bacteria without inhibitors) on the same plate as references.
The percentage of growth inhibition was calculated for each well, using the negative control (media only) and positive control (bacteria without inhibitors) on the same plate. The MIC […]
by an inhibition ≥ 80%. In addition, the maximal percentage of growth inhibition is reported as DMax, indicating any compounds with partial activity.
Date: Last updated June 2018 Confidential Page 5 of 11
Material Code Brand/Supplier Cat No.
Compound preparation plate, Polypropylene PP Corning 3364
Assay Plates – Antimicrobial
Non-binding surface NBS 384w Corning 3640
Assay Plates – Cytotoxicity
Tissue culture treated Black/Clear bottom 384w Corning 3712
Assay Plates - Haemolysis PP-Haem Corning 3657 […]
Growth media - bacteria CAMHB Bacto Laboratories 212322
Culture agar - fungi YPD Becton Dickinson 242720
Growth media - fungi YNB Becton Dickinson 233520
Resazurin Sigma-Aldrich R7017
Dulbecco's Modified Eagle Medium DMEM Life Technologies 11995-073
Foetal Bovine Serum FBS Bovogen FFBS-500
0.9% NaCl Saline Baxter AHF7124
Sample Name Sample ID MW Conc. Solvent Source […]

[2] = Distribution coefficient estimation using chromatography, gLogD (Monash); format: physicochemical; details: gradient HPLC retention against standard compounds, pH 7.4
Excerpt: Partition coefficient values (LogD) of the test compounds were estimated at pH 7.4 by the correlation of their chromatographic retention properties against the characteristics of a series of standard compounds with known partition coefficient values. The method employed is a gradient HPLC-based derivation of the method developed by Lombardo.[42] […]
c) Distribution Coefficient Estimation using Chromatography (gLogDpH)
Partition coefficient values (LogD) of the test compounds were estimated at pH 7.4 by correlation of their
chromatographic retention properties against the characteristics of a series of standard compounds with known
partition coefficient values. […]
In Vitro Intrinsic Clearance […]
Experimental results are tabulated on the following page(s).
as §1

[3] = Mouse liver microsome (MLM) metabolic stability (UNC); format: in vitro ADME
Excerpt: Supplement id3c00286_si_002.xlsx, sheet "Series 2 Data" | column: MLM Clint (mL/min/kg) (UNC); MLM t1/2 (min) (UNC); MLM E (UNC)

[4] = Rat hepatocyte intrinsic clearance; format: in vitro ADME; details: rat hepatocytes, NEU; read-out: Rat Hep CLint (NEU)
[5] = system: VSE; assay: In vitro antibacterial activity, MIC, VSE; format: cell-based
[6] = Human liver microsome intrinsic clearance; format: in vitro ADME; details: human liver microsomes, NEU

| MIC [1] [µg/mL] | chromatographic logD [2] | MLM E (UNC) ([3]; mouse liver microsomes) | CLint scaled ([3]; mouse, liver microsomes) [mL/min/kg] | half-life ([3]; mouse, liver microsomes, read-out: MLM t1/2 (UNC)) [min] | hepatocyte CLint [4] [µL/min/1e6 cells] | MIC ([5]; read-out: VSE MIC (UCL)) [µg/mL] | HLM CLint (NEU) [6] [uL/min/mg protein] | microsomal CLint ([6]; read-out: HLM CLint (NEU)) [µL/min/mg] | MIC ([5]; read-out: VSE MIC) [µg/mL] | Structure (SMILES) |
| --- | --- | --- | --- | --- | --- | --- | --- | --- | --- | --- |
| 2 (≈ 6.3 µM) | 2.3 | 0.929 | 1170 | 4.8 | > 300 | 4 (≈ 12.6 µM) | 61.5 | – | – | c1ccc(-c2nc3n(c2-c2ccc4sccc4c2)CCC3)nc1 [OSA_000822] |
| 4 (≈ 13.3 µM) | – | – | – | – | 13.6 | – | – | 63.5 | – | c1ccc(-c2nc3n(c2-c2ccc4occc4c2)CCC3)nc1 [compound 821] |
| – | – | – | – | – | – | – | – | – | 4 (≈ 12.6 µM) | c1ccc(-c2nc3n(c2-c2ccc4sccc4c2)CCC3)nc1 [compound 822] |
